According to US5082838A, “Sulfur-containing fused pyrimidine derivatives, their production and use” (Takeda Chemical Industries, Ltd., priority 1989, dated 1992):

Legend:
[1] = system: Feverescence of Rat Due to Lipopolvsaccharide (LPS); test: Antipyretic activity in LPS-induced febrile rats; type: in vivo, Male JcL;SD rats; details: p.o.
Description: Activity of Depressing Feverescence of Rat Due to Lipopolvsaccharide (LPS)
Male JcL;SD rats 7 weeks old (body weight: about 250 g, Clea Japan) were used. Each group had 6 rats. The rats were reared in individual cages from the day before, and then the basal body temperature was measured in the rectums using a digital thermometer (Model D221-6, Takara Kogyo) 3 times at intervals of 1 hour. After the third measurement of the body temperature, the compounds shown in Table 6 were orally administered in a volume of 1 ml per 100 g of body weight. LPS (Escherichia coli 0111 B4, Difco) was administered from their tail veins in an amount of 0.2 ml per 100 g of body weight 1 hour after the administration of the compounds.
The body temperature was measured from 3 to 5 hours after that at intervals of 1 hour. The antipyretic activity of the compounds was evaluated by the difference in body temperature between a control group and a compound-administered group. Statistical analysis was carried out by the Dunnett's test.

NGF = test: Promoting effects on synthesis and secretion of NGF in glia cells (C6 glioma), enzyme immuno assay; type: cell-based; details: 24 hours, read-out: Promoting Activity (%) of NGF synthesis and secretion (relative to control = 100); for activity at 30 µM: 3 × 10^-5 M; for activity at 3 µM: 3 × 10^-6 M
Description: Promoting Effects of the Compounds on Synthesis and Secretion of NGF in Glia Cells
A 48 well-plate was seeded with glia strains cells (C6 glioma) at a rate of 2.5×10^4 cells/well, which was cultivated in Dulbecco's modified eagle's medium (DMEM) containing 10% fetal calf serum. When the cells became confluent (2 to 3 days), each of the following compounds of the present invention was added thereto, and it was cultivated in serum free-DMEM for 24 hours. NGF secreted in the culture supernatant was assayed by enzyme immuno assay. An amount of NGF is shown in a relative value to 100, the value of control (without addition of the compound). The compounds were added in a solution of DMSO, at an amount of 1/100 (V/V) of a medium (V/V). In a control, DMSO alone was added.

Interleukin 1 Production = test: Inhibitory effects on interleukin 1 production stimulated by lipopolysaccharide in rat intraperitoneal macrophage (LAF assay); type: cell-based, Male Sprague-Dawley rats; details: LPS 50 ug/ml; for inhibition at 10 µM: 10^-5 Molar; for inhibition at 1 µM: 10^-6 Molar
Description: Inhibitory Effects on Interleukin 1 Production Simulated by Lipopolysaccharide in the Rat Intraperitoneal Macrophage
Male Sprague-Dawley rats (8 weeks old, body weight: 300 g, Clea Japan) were killed by exsanguination under etherization. 20 ml of a culture solution (RPMI-1640) was intraperitoneally administered to each rat, and the abdominal part thereof was massaged, followed by abdominal section to recover the culture solution. After centrifugation of the solution, the cell pellet obtained was resuspended in 4 ml of the culture solution, superposed on 5 ml of Ficoll-Paque solution (lymphocyte separation medium, Wako Junyaku, Japan), and centrifuged at 450 g at room temperature for 15 minutes. The cells located in the boundary between the Ficoll-Paque solution and the culture solution were collected and washed 3 times with the culture solution. The resulting cells were suspended in the culture solution again, which was used as a macrophage-suspended solution (3×10^5 cells/ml).
Interleukin 1 was produced in the following manner. Macrophage (3×10^5 cells) in a 96-well microtiter plate was preincubated in a CO 2 incubator for 1 hour with each of the compounds shown in Table 5. Then, 50 ug/ml of lipopolysaccharide (Escherichia coli 0111 B4, Difco) was added thereto. After cultivation was further continued for 20 hours, the activity of interleukin 1 in the culture supernatant was measured by an LAF (lymphocyte activating factor) assay. Experiments were carried out in a triplicate manner.
The LAF assay was conducted as the following. Thymocytes (1-1.5×10^6 cells) of C3H/HeJ mice were added to phytohemagglutinin (PHA) P (diluted 1/2000; Difico) and the macrophage culture solution diluted 1/10 or 1/30, and cultivated in a CO2 incubator. After 48 hours, ^3 H-thymidine of 0.5 uCi was added thereto and cultivation was further continued for 24 hours. Then, the amount of ^3 H-thymidine entrapped in the thymocytes was measured. The radioactivity entrapped in the thymocytes was taken as the amount of interleukin-1.
We conducted this process partly modifying the method of R. C. Newton et al. [J. Leukocyte, Biology 39, 299-3111 (1986)].

endothelin constriction = test: Inhibitory effects on endothelin induced contraction in porcine coronary arteries (LAD rings); type: cell-based; details: Sus scrofa, endothelin 3×10^-9 M, read-out: Inhibition (%) of maximum contraction by endothelin; for inhibition at 10 µM: 10^-5 M; for inhibition at 1 µM: 10^-6 M
Description: Inhibitory Effects of the Compounds on […] Induced Contraction in Porcine Coronary Arteries
Ring preparation of porcine left arterior descending coronary arteries (LAD) were suspended in 20 ml baths containing Krebs-Henseleit solutions at 37° C. gassed with 97% O2 -3% CO2. Endothelin (3×10^-9 M) was added to the baths, and after the constriction reached the steady state, the compounds at concentrations of […] and 10^-5 M (Examples 45, 48 and 127) were added to the bath. Then, the relaxation activity was examined. The relaxation activity of the compounds was expressed as % inhibition from the maximum contraction by endothelin.

[2] = system: Endothelin Induced Pressor and Depressor Responses; test: Inhibitory effects on endothelin induced pressor and depressor responses in conscious beagle dogs; type: in vivo
From the text: Inhibitory Effects on Endothelin Induced Pressor and Depressor Responses in Conscious Beagle Dogs
Using 10 male beagles (12-14 kg, 8-10 months old), a polyethylene cannula (PEG-100) was inserted into each of the left femoral artery and vein of each beagle after pentobarbital anesthesia. The experiment was started from 3 to 7 days after the operation. The cannula was connected to a pressure transducer to measure the systemic blood pressure. The endothelin antagonistic activity of the compound obtained in Example 65 was examined, taking the depressor and pressor responses due to the intravenous administration of endothelin as its indication. […]

[3] = system: Ischemic and Reperfused Rat Heart; test: Depressing effect against evolution of infarct size in ischemic and reperfused rat heart; type: in vivo, Male Wistar rats; details: 100 mg/kg p.o. 2 hours before occlusion and 5 hours after reperfusion; n = 5; control 36.7 ± 1.4 (12); P < 0.01
Description: Depressing Effect Against Evolution of Infarct Size in Ischemic and Reperfused Rat Heart
Male Wistar rats were medianly dissected under pentobarbital anesthesia, and left anterior descending coronary artery was occluded at its origin for 1 hour, followed by resumption of Blood flowing. The chest was closed 30 to 60 minutes after the reperfusion, and the rates were kept under conscious state. After 24 hours, the rats were anesthetized again and the hearts were excised. The left ventricle of each heart was divided into six parts, and these divided parts were stained with 1% triphenyltetrazolium chloride solution at 37° C. for 15 minutes. Then, infarcted portions were weighed.
The compound obtained in Example 127 was orally administered in a dose of 100 mg/kg as a gum arabic suspension 2 hours before the occlusion and 5 hours after the reperfusion.

[4] = 1 mg/kg, i.v., 5 min after administration, n = 4
[5] = 1 mg/kg, i.v., 1 hr after administration, n = 4
[6] = 1 mg/kg, i.v., 2 hr after administration, n = 4
[7] = 1 mg/kg, i.v., 4 hr after administration, n = 4
[8] = 1 mg/kg, i.v., 6 hr after administration, n = 4
[9] = 10 mg/kg, p.o., 1 hr after administration, n = 3
[10] = 10 mg/kg, p.o., 2 hr after administration, n = 3
[11] = 10 mg/kg, p.o., 4 hr after administration, n = 3
[12] = 10 mg/kg, p.o., 8 hr after administration, n = 3

9-Formyl-7-propyl-3,4-dihydro-2H,6H-pyrimido[6,1-b][1,3]thiazine-6,8(7H)-dione [Example 101]
Antipyretic Activity (difference in body temperature vs. control group) ([1]; 100 mg/kg): -0.87 °C

CCCn1c(=O)c(-c2ccccc2)c2n(c1=O)CCCS2 [Example 1, 9-Phenyl-7-propyl-3,4-dihydro-2H,6H-pyrimido[6,1-b][1,3] thiazine-6,8(7H)-dione]
activity at 30 µM (NGF): 117 ± 34%
activity at 3 µM (NGF): 168 ± 6%

CCn1c(=O)c(-c2ccccc2)c2n(c1=O)CCCS2 [Example 17]
inhibition at 10 µM (Interleukin 1 Production): 93%

CCCCn1c(=O)c(-c2ccccc2)c2n(c1=O)CCCS2 [Example 23]
Antipyretic Activity (difference in body temperature vs. control group) ([1]; 100 mg/kg): -0.72 °C

O=c1c(-c2ccccc2)c2n(c(=O)n1Cc1ccccc1)CCCS2 [Example 36, 7-benzyl-9-phenyl-3,4-dihydro-2H,6H-pyrimido[6,1-b][1,3]thiazine-6,8(7H)-dione]
activity at 30 µM (NGF): 102 ± 2%
activity at 3 µM (NGF): 240 ± 16%

CCn1c(=O)c(-c2ccccc2)c2n(c1=O)CCC[S+]2[O-] (stereo not shown) [Example 43]
inhibition at 10 µM (Interleukin 1 Production): 52%
Antipyretic Activity (difference in body temperature vs. control group) ([1]; 100 mg/kg): -0.70 °C

CCCCn1c(=O)c(-c2ccccc2)c2n(c1=O)CCC[S+]2[O-] (stereo not shown) [Example 45]
inhibition at 10 µM (Interleukin 1 Production): 75%
inhibition at 1 µM (Interleukin 1 Production): 30%
inhibition at 10 µM (endothelin constriction): 100%
inhibition at 1 µM (endothelin constriction): 6.2%

CCCn1c(=O)c(-c2ccccc2)c2n(c1=O)CC[S+]2[O-] (stereo not shown) [Example 48]
inhibition at 10 µM (endothelin constriction): 86.6%
inhibition at 1 µM (endothelin constriction): 24.6%

CCCCCn1c(=O)c(-c2ccccc2)c2n(c1=O)CCC[S+]2[O-] (stereo not shown) [Example 50]
inhibition at 10 µM (Interleukin 1 Production): 98%
inhibition at 1 µM (Interleukin 1 Production): 58%

CCCn1c(=O)c(-c2ccccc2)c2n(c1=O)CCCS2(=O)=O [Example 58, 1,1-Dioxo-9-phenyl-7-propyl-3,4-dihydro-2H,6H-pyrimido [6,1-b][1,3]thiazine-6,8(7H)-dione]
activity at 30 µM (NGF): 140 ± 2%
activity at 3 µM (NGF): 164 ± 25%

Cn1c(=O)c(-c2ccccc2)c2n(c1=O)CCS2(=O)=O [Example 59]
inhibition at 10 µM (Interleukin 1 Production): 89%

CCCn1c(=O)c(-c2ccccc2)c2n(c1=O)CCS2(=O)=O [Example 61]
activity at 30 µM (NGF): 109 ± 12%
activity at 3 µM (NGF): 177 ± 8%

CCCCn1c(=O)c(-c2ccccc2)c2n(c1=O)CCS2(=O)=O [Example 62]
inhibition at 10 µM (Interleukin 1 Production): 96%

O=c1c(-c2ccccc2)c2n(c(=O)n1-c1ccccc1)CCS2(=O)=O [Example 63]
inhibition at 10 µM (Interleukin 1 Production): 98%

Cn1c(=O)c(-c2ccccc2)c2n(c1=O)CCCS2(=O)=O [Example 64]
inhibition at 10 µM (Interleukin 1 Production): 100%
inhibition at 1 µM (Interleukin 1 Production): 60%
Antipyretic Activity (difference in body temperature vs. control group) ([1]; 25 mg/kg): -0.68 °C
Antipyretic Activity (difference in body temperature vs. control group) ([1]; 50 mg/kg): -0.82 °C
Antipyretic Activity (difference in body temperature vs. control group) ([1]; 100 mg/kg): -1.13 °C

CCn1c(=O)c(-c2ccccc2)c2n(c1=O)CCCS2(=O)=O [Example 65]
inhibition at 10 µM (Interleukin 1 Production): 100%
inhibition at 1 µM (Interleukin 1 Production): 40%
Antipyretic Activity (difference in body temperature vs. control group) ([1]; 100 mg/kg): -0.95 °C

O=c1c(-c2ccccc2)c2n(c(=O)n1-c1ccccc1)CCCS2(=O)=O [Example 67]
inhibition at 10 µM (Interleukin 1 Production): 98%
inhibition at 1 µM (Interleukin 1 Production): 10%

CCCC/C=C/c1c2n(c(=O)n(CCC)c1=O)CCS2 [Example 106]
Antipyretic Activity (difference in body temperature vs. control group) ([1]; 100 mg/kg): -0.53 °C

CCCn1c(=O)c(-c2ccccc2)c2n(c1=O)CC=CS2 [Example 127, 9-Phenyl-7-propyl-4H,6H-pyrimido[6,1-b][1,3]thiazine6,8(7H)-dione]
% inhibition of Depressor Response [2, 4]: 86 ± 9%
% inhibition of Pressor Response [2, 4]: 100%
% inhibition of Depressor Response [2, 5]: 74 ± 11%
% inhibition of Pressor Response [2, 5]: 55 ± 7%
% inhibition of Depressor Response [2, 6]: 57 ± 10%
% inhibition of Pressor Response [2, 6]: 55 ± 7%
% inhibition of Depressor Response [2, 7]: 31 ± 13%
% inhibition of Pressor Response [2, 7]: 38 ± 15%
% inhibition of Depressor Response [2, 8]: 30 ± 8%
% inhibition of Pressor Response [2, 8]: 32 ± 10%
% inhibition of Depressor Response [2, 9]: 34 ± 9%
% inhibition of Pressor Response [2, 9]: 37 ± 10%
% inhibition of Depressor Response [2, 10]: 81 ± 10%
% inhibition of Pressor Response [2, 10]: 85 ± 10%
% inhibition of Depressor Response [2, 11]: 67 ± 12%
% inhibition of Pressor Response [2, 11]: 76 ± 12%
% inhibition of Depressor Response [2, 12]: 50 ± 0%
% inhibition of Pressor Response [2, 12]: 43 ± 4%
inhibition at 10 µM (endothelin constriction): 90%
inhibition at 1 µM (endothelin constriction): 82.3%
ratio of the weight of the infarcted region to the weight of the left ventricles [3]: 26.8 ± 3.1%

O=c1c(-c2ccccc2)c2n(c(=O)n1Cc1ccccc1)CC=CS2 [Example 129, 7-Benzyl-9-phenyl-4H,6H-pyrimido[6,1-b][1,3]thiazine-6,8(7H)-dione]
activity at 30 µM (NGF): 117 ± 6%
activity at 3 µM (NGF): 197 ± 9%
